# Measured values published in ChEMBL document CHEMBL4266003, “New Dopamine D3-Selective Receptor Ligands Containing a 6-Methoxy-1,2,3,4-tetrahydroisoquinolin-7-ol Motif” (ACS Med Chem Lett, 2018).
# Activity calls are given as the source filed them. The rule behind the calls is not given here.
# Columns and labels:
# [1] = target: T1, D(4) dopamine receptor (Homo sapiens, UniProt P21917); experiment: Displacement of [3H]N-Methylspiperone from human dopamine D4 receptor expressed in HEK cell membranes
# T1 sequence (P21917 whole entry): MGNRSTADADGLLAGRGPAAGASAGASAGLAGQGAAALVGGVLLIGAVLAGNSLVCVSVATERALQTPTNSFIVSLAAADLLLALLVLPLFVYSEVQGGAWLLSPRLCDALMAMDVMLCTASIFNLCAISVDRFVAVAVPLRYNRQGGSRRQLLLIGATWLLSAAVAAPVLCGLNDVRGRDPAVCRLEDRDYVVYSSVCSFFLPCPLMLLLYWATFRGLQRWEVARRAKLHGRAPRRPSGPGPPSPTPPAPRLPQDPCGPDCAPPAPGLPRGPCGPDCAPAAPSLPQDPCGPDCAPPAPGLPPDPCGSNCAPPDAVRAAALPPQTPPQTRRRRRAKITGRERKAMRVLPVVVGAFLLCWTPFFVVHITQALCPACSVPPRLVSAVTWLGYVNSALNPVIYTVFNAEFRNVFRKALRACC
# [2] = target: T2, D(1A) dopamine receptor (Homo sapiens, UniProt P21728); experiment: Displacement of [3H]SCH23390 from human dopamine D1 receptor expressed in HEKT cell membranes
# T2 sequence (P21728 whole entry): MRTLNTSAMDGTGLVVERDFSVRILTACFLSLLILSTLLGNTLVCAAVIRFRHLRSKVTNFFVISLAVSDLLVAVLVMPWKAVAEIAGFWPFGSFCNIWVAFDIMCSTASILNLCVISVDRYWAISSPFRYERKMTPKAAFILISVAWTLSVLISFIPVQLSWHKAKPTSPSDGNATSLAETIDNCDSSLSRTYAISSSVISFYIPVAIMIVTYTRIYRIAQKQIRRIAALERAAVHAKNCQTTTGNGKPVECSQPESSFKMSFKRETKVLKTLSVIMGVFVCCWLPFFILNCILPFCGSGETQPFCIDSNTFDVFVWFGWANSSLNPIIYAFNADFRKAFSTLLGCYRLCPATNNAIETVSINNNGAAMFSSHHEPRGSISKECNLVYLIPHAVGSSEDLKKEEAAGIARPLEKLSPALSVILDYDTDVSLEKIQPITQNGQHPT
# [3] = target: T3, D(2) dopamine receptor (Homo sapiens, UniProt P14416); experiment: Inhibition of human dopamine D2 receptor expressed in HEKT cell membranes at 10 uM relative to control; type: cell-based
# T3 sequence (P14416 whole entry): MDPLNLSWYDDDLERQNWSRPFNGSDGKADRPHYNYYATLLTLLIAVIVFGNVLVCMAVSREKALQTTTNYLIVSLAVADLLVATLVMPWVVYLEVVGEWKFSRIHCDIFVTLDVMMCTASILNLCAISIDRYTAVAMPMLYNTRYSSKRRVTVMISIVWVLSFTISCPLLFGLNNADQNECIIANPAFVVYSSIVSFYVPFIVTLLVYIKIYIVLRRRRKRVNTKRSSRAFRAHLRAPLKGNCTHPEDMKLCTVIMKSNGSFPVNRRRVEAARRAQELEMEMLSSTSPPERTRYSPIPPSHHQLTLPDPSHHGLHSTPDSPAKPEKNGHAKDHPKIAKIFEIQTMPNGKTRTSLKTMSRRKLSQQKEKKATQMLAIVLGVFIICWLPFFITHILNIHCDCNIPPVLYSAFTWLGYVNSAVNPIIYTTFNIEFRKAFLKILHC
# [4] = target: T4, D(3) dopamine receptor (Homo sapiens, UniProt P35462); experiment: Displacement of [3H]N-Methylspiperone from human dopamine D3 receptor expressed in HEKT cell membranes
# T4 sequence (P35462 whole entry): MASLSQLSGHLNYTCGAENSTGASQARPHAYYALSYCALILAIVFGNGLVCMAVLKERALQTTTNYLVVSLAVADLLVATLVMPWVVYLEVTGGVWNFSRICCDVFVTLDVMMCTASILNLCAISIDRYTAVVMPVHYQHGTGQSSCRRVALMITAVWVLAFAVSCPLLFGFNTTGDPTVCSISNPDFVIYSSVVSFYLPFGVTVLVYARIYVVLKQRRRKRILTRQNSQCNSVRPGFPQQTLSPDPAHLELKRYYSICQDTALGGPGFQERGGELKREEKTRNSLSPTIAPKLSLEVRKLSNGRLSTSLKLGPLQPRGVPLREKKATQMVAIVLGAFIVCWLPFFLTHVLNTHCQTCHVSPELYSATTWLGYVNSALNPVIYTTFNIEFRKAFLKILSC
# [5] = organism: Homo sapiens; experiment: Selectivity ratio of Ki for human dopamine D1 receptor expressed in HEKT cell membranes to Ki for human dopamine D3 receptor expressed in HEKT cell membranes; type: cell-based
# [6] = target: T2, D(1A) dopamine receptor; experiment: Inhibition of human dopamine D1 receptor expressed in HEKT cell membranes at 10 uM relative to control; type: cell-based
# [7] = target: T5, D(4) dopamine receptor (Homo sapiens) (UniProt P21917); experiment: Inhibition of human dopamine D4 receptor expressed in HEKT cell membranes at 10 uM relative to control; type: cell-based
# T5 sequence (whole entry): T1 sequence (P21917 whole entry)
# [8] = organism: Homo sapiens; experiment: Selectivity ratio of Ki for human dopamine D2 receptor expressed in fibroblasts to Ki for human dopamine D3 receptor expressed in HEKT cell membranes; type: cell-based
# [9] = target: T3, D(2) dopamine receptor; experiment: Displacement of [3H]N-Methylspiperone from human dopamine D2 receptor expressed in fibroblasts
# [10] = target: T4, D(3) dopamine receptor; experiment: Agonist activity at human dopamine D3 receptor assessed as beta-arrestin recruitment by Tango assay; type: functional
# [11] = target: T4, D(3) dopamine receptor; experiment: Antagonist activity at human dopamine D3 receptor assessed as inhibition of beta-arrestin recruitment by Tango assay; type: functional
SMILES,Ki [1] [nM],Ki [2] [nM],inhibition [3] [%],Ki [4] [nM],Ratio Ki [5],inhibition [6] [%],inhibition [7] [%],Ratio Ki [8],Ki [9] [nM],Activity [10],EC50 [11] [nM]
COc1cc2c(cc1O)CN(CCCCNC(=O)c1ccnc3ccccc13)CC2,410,1810,< 50,22,82,,,,,,
COc1cccc(C(=O)NCCCCN2CCc3cc(OC)c(O)cc3C2)c1,150,,< 50,12,,< 50,,,,,
COc1cc2c(cc1OC)CN(CCCCNC(=O)c1ccc(C#N)cc1)CC2,,,< 50,410,,< 50,< 50,,,,
COc1cc2c(cc1O)CN(CCCCNC(=O)c1ccc(-c3ccccc3)cc1)CC2,720,800,,2.7,296,,,296,800,,
COc1cc2c(cc1O)CN(CCCCNC(=O)c1ccc(C#N)cc1)CC2,,,< 50,6.3,,< 50,< 50,,,inactive,1400
COc1cc2c(cc1O)CN(CCCCNC(=O)c1ccncc1)CC2,1400,,< 50,24,,< 50,,,,,
COc1ccc(C(=O)NCCCCN2CCc3cc(OC)c(O)cc3C2)cc1,560,,< 50,5.9,,< 50,,,,inactive,360
COc1cc2c(cc1O)CN(CCCCNC(=O)c1ccc(Br)cc1)CC2,350,500,,3.4,147,,,> 2940,> 10000,,
COc1cc2c(cc1O)CN(CCCCNC(=O)c1ccc(F)cc1)CC2,95,,< 50,4.4,,< 50,,,,inactive,490
COc1cc2c(cc1O)CN(CCCCNC(=O)c1ccc(C(N)=O)cc1)CC2,,,,28,,< 50,< 50,31,860,,
COc1cc2c(cc1O)CN(CCCCNC(=O)c1ccc(Cl)cc1)CC2,140,680,,2.1,323,,,524,1100,,
COc1cc2c(cc1O)CN(CCCCNC(=O)c1ccc3ccccc3c1)CC2,170,800,,2.7,296,,,260,700,,
COc1cc2c(cc1O)CN(CCCCNC(=O)c1ccc(I)cc1)CC2,1500,1600,< 50,10,160,,,,,,
COc1cc2c(cc1O)CN(CCCCNC(=O)c1ccc(O)cc1)CC2,660,,< 50,8.7,,< 50,,,,inactive,420
